In US20160375155A1, “Collagen Imaging Compositions” (Collagen Medical, LLC, priority 2015, published 2016):
Like-named read-outs stand apart in the source and are kept apart here. Bridge positions count the residues as written; N and C are the ends. Square brackets hold non-standard residues; d marks the D form. Peptide text beside a SMILES is read from it. * marks the point of attachment. X1 = O=C(O)CN1CCN(CC(=O)O)CCN([C@H](CCC(=O)*)C(=O)O)CCN(CC(=O)O)CC1; Bip = N[C@@H](Cc1ccc(-c2ccccc2)cc1)C(=O)O

What was measured:
[1] = biological target: T1, rat collagen (acid soluble, type I, rat tail) (Rattus norvegicus, UniProt P02454+P02466); assay: Collagen binding assay, dried rat collagen plate; details: 37° C., pH 7.4; collagen 5 μM; fit to 1 binding site
T1 construct: rat collagen (acid soluble, type I, rat tail, Millipore Inc, cat#08-115); purchased Millipore Inc 08-115; host or cells: rat tail
T1 sequence (P02454 152-1207 limits assumed): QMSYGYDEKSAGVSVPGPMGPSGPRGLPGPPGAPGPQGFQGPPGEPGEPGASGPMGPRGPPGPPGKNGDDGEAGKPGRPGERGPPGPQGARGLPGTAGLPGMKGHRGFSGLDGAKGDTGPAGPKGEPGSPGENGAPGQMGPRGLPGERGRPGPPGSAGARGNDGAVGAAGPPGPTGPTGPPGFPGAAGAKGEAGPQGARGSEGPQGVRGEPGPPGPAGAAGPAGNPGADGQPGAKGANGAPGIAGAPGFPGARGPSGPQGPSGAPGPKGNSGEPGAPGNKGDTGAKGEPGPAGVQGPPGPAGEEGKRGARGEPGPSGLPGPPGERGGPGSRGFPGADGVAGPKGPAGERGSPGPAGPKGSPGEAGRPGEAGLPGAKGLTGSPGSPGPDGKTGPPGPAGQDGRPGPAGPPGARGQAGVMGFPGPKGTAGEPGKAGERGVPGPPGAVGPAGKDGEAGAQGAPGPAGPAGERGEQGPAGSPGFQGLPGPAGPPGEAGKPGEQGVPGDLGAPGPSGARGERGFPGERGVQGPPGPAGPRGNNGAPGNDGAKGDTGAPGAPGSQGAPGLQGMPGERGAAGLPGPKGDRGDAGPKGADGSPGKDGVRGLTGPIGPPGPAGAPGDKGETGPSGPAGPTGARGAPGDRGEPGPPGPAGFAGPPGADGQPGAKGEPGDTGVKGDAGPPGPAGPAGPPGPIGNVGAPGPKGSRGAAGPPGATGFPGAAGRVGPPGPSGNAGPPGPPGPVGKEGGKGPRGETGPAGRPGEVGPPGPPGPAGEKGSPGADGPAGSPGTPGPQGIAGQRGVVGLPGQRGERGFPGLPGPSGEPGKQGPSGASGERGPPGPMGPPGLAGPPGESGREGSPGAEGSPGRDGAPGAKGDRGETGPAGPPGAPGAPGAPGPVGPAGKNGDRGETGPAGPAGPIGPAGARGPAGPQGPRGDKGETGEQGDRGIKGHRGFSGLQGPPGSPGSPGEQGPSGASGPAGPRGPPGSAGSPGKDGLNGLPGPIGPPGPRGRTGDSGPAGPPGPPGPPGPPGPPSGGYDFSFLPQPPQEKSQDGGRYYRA
T1 sequence (P02466 86-1125 limits assumed): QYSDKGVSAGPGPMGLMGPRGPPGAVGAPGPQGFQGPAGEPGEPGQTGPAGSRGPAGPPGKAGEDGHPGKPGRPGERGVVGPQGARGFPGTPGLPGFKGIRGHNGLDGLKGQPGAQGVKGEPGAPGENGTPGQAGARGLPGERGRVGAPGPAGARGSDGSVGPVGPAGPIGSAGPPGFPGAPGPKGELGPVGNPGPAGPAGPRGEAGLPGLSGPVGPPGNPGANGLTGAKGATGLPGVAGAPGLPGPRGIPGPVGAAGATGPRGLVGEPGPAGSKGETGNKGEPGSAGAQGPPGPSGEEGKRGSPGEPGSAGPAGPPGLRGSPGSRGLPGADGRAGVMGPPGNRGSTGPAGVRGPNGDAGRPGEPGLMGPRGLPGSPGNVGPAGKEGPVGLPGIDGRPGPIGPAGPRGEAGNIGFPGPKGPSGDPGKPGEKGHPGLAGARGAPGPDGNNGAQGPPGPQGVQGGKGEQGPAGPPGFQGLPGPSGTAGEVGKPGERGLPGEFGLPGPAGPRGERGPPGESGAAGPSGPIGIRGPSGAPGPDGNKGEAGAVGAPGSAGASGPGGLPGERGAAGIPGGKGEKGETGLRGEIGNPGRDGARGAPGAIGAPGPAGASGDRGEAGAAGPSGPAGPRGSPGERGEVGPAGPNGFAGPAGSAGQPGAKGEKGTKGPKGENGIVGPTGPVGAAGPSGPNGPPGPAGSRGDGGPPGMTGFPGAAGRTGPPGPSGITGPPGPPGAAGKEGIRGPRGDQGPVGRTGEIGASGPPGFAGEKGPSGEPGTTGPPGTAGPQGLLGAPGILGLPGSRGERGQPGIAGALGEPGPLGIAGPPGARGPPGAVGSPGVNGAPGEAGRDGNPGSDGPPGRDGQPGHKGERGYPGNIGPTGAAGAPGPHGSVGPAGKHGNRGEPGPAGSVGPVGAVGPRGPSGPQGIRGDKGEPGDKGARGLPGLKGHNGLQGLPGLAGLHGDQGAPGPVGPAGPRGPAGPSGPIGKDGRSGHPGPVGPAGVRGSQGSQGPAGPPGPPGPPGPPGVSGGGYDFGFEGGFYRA
Protocol: 10 ml of a 3.79 mg/mL solution of rat collagen (acid soluble, type I, rat tail, Millipore Inc, cat#08-115) is dialyzed against 10 mM Phosphate (NaH2PO4), pH 4.2 at 4° C. with three changes of the dialysis buffer.
Ice-cold 1×PBS pH 10.8 is added to the collagen solution for a final collagen concentration of 10 μM, pH 7.4. Collagen solutions are gelled and dried down in the wells of a 96 well microtiter plate (Corning Polystyrene Flat Bottom, cat#3641). 70 μl of 10 μM collagen is aliquoted into each well in every other lane in the plate (48 wells) and the plate is incubated at 37° C. for 18 hours to form a gel and evaporate to dryness. […] The final well content of gelled collagen is measured by determination of hydroxyproline and is around 180 μg/ml.
(§1) a serial dilution of 0.2 μM-30 μM of the peptide chelate is prepared in PBS, pH 7.4 (˜300 μL of solution for each concentration). […] The concentration of free, unbound compound in the sample supernatants and the concentration of compound in the reserved (total) sample are determined by ICP-MS (Agilent 7500, gadolinium concentration). The concentration of compound bound to collagen is determined as [bound]=[total]−[unbound].
(§2) The binding of compounds to human, rat and dog collagen (5 μM) was measured over the concentration range 0.2-5 μM of Comp ID Nos.: 1-4. […]

[2] = biological target: Native canine Collagen Type I and III protein; assay: Collagen binding assay, dried dog collagen plate; details: 37° C., pH 7.4; collagen 5 μM; fit to 1 binding site
Protocol: Canine collagen (Native canine Collagen Type I and III protein, YO protein AB, cat#739) is dissolved in 0.5 M acetic acid at 3.3 mg/ml by vortexing and shaking overnight at 4° C. The solution is then dialyzed against 10 mM Phosphate (NaH2PO4), pH 4.2 at 4° C. with three changes of the dialysis buffer.
Ice-cold 1×PBS pH 10.8 is added to the collagen solution for a final collagen concentration of 10 μM, pH 7.4. Collagen solutions are gelled and dried down in the wells of a 96 well microtiter plate (Corning Polystyrene Flat Bottom, cat#3641). 70 μl of 10 μM collagen is aliquoted into each well in every other lane in the plate (48 wells) and the plate is incubated at 37° C. for 18 hours to form a gel and evaporate to dryness. Ungelled collagen is removed by washing the collagen films with 200 μl 1×PBS pH 7.4 (four times, 15 min per wash). The thin collagen fibril film remains, coating the bottom of each well. After washing by PBS the plate is again dried at 37° C. for 2 hours and is stored at −20° C. The final well content of gelled collagen is measured by determination of hydroxyproline and is around 180 μg/ml.
a serial dilution of 0.2 μM-30 μM of the peptide chelate is prepared in PBS, pH 7.4 (˜300 μL of solution for each concentration). 90 μl of each concentration is also reserved in a HPLC glass vial as a sample to measure the total concentration. 140 μL of each dilution of peptide chelate is added to wells containing and non-containing collagen (control for nonspecific plastic binging). The plate is then incubated on a shaker table (300 rpm) for 2 hours at room temperature to allow the compound to bind. […] The concentration of free, unbound compound in the sample supernatants and the concentration of compound in the reserved (total) sample are determined by ICP-MS (Agilent 7500, gadolinium concentration). The concentration of compound bound to collagen is determined as [bound]=[total]−[unbound].
as §2

[3] = biological target: T2, human type I collagen (Homo sapiens, UniProt P02452+P08123); assay: Collagen binding assay, dried human collagen plate; details: 37° C., pH 7.4; collagen 5 μM; fit to 1 binding site
T2 construct: purchased Advanced Biomatrix 5007-A
T2 sequence (P02452 162-1218 limits assumed): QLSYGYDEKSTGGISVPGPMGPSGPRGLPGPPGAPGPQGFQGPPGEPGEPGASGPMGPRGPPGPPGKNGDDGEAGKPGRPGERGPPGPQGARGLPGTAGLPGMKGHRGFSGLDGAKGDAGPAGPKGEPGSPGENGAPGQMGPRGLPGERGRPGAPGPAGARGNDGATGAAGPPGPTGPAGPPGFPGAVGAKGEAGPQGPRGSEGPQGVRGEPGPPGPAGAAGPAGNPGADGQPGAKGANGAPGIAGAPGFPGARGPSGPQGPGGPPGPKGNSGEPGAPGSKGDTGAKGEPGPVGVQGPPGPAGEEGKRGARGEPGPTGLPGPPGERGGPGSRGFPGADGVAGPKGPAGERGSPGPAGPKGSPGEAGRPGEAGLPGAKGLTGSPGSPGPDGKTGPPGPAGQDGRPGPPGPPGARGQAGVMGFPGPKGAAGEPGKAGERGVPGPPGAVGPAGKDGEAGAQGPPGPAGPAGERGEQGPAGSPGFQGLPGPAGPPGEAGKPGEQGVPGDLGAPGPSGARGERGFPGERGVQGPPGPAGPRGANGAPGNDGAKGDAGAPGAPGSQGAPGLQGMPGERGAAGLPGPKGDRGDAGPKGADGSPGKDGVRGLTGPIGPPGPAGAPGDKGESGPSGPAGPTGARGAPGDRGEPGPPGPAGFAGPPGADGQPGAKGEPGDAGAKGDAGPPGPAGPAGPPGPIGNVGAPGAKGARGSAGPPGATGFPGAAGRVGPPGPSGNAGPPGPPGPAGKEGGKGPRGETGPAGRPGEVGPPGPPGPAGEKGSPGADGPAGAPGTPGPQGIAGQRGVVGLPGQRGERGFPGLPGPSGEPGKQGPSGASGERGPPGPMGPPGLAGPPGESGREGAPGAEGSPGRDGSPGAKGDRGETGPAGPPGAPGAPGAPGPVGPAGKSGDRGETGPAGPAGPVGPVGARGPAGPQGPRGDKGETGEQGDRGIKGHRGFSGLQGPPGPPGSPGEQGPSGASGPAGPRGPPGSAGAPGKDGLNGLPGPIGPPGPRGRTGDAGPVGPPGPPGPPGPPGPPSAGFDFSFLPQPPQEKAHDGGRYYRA
T2 sequence (P08123 80-1119 limits assumed): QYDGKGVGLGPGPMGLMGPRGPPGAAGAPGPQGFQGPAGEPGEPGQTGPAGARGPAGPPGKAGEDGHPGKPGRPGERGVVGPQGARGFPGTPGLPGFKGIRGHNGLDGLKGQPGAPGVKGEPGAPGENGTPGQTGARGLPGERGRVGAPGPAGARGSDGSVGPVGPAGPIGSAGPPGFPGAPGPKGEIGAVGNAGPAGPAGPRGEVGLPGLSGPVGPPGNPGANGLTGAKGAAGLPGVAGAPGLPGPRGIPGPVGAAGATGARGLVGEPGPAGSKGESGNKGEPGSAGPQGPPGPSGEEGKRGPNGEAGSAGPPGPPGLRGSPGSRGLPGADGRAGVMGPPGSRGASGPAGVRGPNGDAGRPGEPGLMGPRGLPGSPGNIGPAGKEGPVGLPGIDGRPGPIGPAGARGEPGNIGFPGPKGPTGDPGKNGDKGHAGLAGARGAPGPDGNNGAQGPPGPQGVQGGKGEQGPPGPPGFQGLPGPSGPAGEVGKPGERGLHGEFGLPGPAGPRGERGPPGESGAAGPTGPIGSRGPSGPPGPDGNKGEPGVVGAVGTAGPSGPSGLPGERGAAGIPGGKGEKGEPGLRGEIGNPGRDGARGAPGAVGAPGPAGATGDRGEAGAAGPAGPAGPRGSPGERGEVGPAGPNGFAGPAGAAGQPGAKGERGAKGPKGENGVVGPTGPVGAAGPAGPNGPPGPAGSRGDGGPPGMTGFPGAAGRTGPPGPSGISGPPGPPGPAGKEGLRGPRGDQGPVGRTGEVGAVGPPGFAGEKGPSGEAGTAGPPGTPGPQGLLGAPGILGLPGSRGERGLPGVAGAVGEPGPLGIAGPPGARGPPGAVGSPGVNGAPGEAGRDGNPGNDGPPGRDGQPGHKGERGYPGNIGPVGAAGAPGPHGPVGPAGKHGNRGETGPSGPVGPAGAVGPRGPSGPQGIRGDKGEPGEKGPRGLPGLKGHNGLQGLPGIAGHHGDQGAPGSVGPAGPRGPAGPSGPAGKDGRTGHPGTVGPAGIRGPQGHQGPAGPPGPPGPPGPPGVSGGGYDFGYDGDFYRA
Protocol: 10 ml of a solution of 3 mg/ml of human type I collagen (VitroCol solution, Advanced Biomatrix, cat#5007-A) is dialyzed against 10 mM Phosphate (NaH2PO4), pH 4.2 at 4° C. with three changes of the dialysis buffer. The protein concentration is determined by liquid chromatography determination of hydroxyproline (P. Hutson, J. Chromatogr. B, 791 (2003) 427-430).
Ice-cold 1×PBS pH 10.8 is added to the collagen solution for a final collagen concentration of 10 μM, pH 7.4. Collagen solutions are gelled and dried down in the wells of a 96 well microtiter plate (Corning Polystyrene Flat Bottom, cat#3641). […] The final well content of gelled collagen is measured by determination of hydroxyproline and is around 180 μg/ml.
as §1, §2

[4] = Relaxivity in PBS (Bruker mq60, 60 MHz); format: physicochemical; details: pH 7.4 PBS at 1.4 T, 37° C.
Protocol: The relaxivity of Compound ID Nos. 1, 2 and 4 were determined in PBS at 37° C. using a Bruker mq60 spectrometer operating at 60 MHz (1.4 tesla). Samples were equilibrated at concentrations ranging from 0-200 μM for at least 30 minutes at 37° C. T1 was measured using an inversion recovery sequence. Relaxivities were calculated by subtracting the relaxation rate of the buffer […] and then dividing the result by the concentration of Compound.

[5] = test system: myocardial collagen; details: rat MI model, healthy and infarcted heart
Protocol: Myocardial infarction was induced in Sprague Dawley rats by occlusion of the left anterior descending coronary artery followed by reperfusion. The rats were anesthetized with an intraperitoneal (i.p.) injection of 100 μg pentobarbital sodium per gram body weight and a thorocotamy was performed. The pericardium was removed and the left anterior artery was sutured with a 7.0 silk suture for 60 minutes after which reperfusion was established.
Animals were sacrificed at 60 minutes post-injection and the heart removed and sectioned for analysis.
The slope for this correlation is a measure of efficacy.

[6] = test system: acute and chronic myocardial infarct (fibrosis); format: in vivo, canine; details: for CNR between infarct and blood: Compound ID No. 1 0.0075 mmol/kg, extracellular gadolinium 0.2 mmol/kg
Description: An experimental protocol was developed to test the ability of Compound ID No. 1 to differentiate acute from chronic myocardial infarction in an in-vivo large animal (canine) model. In this model, early following acute myocardial infarction, pathologic fibrosis has not fully developed within the infarct zone (fibrosis-poor), whereas in chronic MI (˜8 weeks following MI), dense fibrosis fully replaced necrotic myocardium (fibrosis-rich).
In the myocardial fibrosis canine model, a vascular occluder was placed surgically around the left anterior descending coronary artery (LAD) to allow occlusion and reperfusion. Two animals were studied following acute MI and two additional animals were studied both following acute MI, and chronically at 8 weeks. The LAD vessel was completely occluded for 70-90 minutes and then released to allow reperfusion. The chest was sutured closed, and the animal was allowed to recover. Imaging was performed on a 3 T clinical scanner in an acute (<1 week, minimal fibrosis expected in acute necrosis) and chronic (8 weeks, healing complete, necrotic myocardium replaced by dense collagenous scar) time point after infarction. For each time point, the animals undergo 2 scans separated by 48 hours with conventional gadolinium contrast (0.2 mmol/kg GdDTPA) and Compound ID No. 1 (0.0075 mmol/kg).
Imaging was performed on a 3 T clinical scanner (Siemens Verio). Breath holding was achieved by temporarily turning off the animal ventilator, and all images were ECG gated. Standard short and long axis cine imaging was performed throughout the left ventricle to identify left ventricular function and regional wall motion abnormalities. Delayed enhancement imaging (segmented 2D inversion recovery gradient echo) was performed prior to and serially following Compound ID No. 1 administration. Two strategies were employed: (1) a fixed inversion time was chosen to null pre-contrast myocardium (TI˜650 ms), and (2) a variable inversion time set to null post-contrast myocardium as is performed in traditional delayed enhancement imaging.
After imaging, animals were euthanized and post mortem analysis of myocardium was performed. Tissue was assessed grossly by histopathologic staining with triphenyltetrazolium chloride for myocardial infarction, and microscopically with Masson's trichrome staining for fibrosis. Additionally quantitative tissue analysis for hydroxyproline was used to measure total collagen content in tissue and compared to tissue gadolinium concentration by inductively coupled plasma-mass spectrometry. MR data was analyzed quantitatively for conspicuity of infarction and image quality as well as contrast to noise ratio (CNR) for infarct-normal myocardium and infarct-blood.

Compound	Kd [1]	Kd [2]	Kd [3]	R1 (relaxivity) [4]	calculated slope, hydroxyproline vs. gadolinium concentration [5]	CNR between infarct and blood ([6]; acute MI)	CNR between infarct and blood ([6]; chronic MI (8 weeks))	MR image uptake in scar vs healthy myocardium ([6]; chronic myocardial infarction, FIG. 25b)
CC(C)[C@H](NC(=O)[C@@H]1CSSC[C@H](NC(=O)[C@H](Cc2c[nH]cn2)NC(=O)[C@H](Cc2c[nH]c3ccccc23)NC(=O)[C@H](CCCCNC(=O)CC[C@H](C(=O)O)N2CCN(CC(=O)O)CCN(CC(=O)O)CCN(CC(=O)O)CC2)NC(=O)CC[C@H](C(=O)O)N2CCN(CC(=O)O)CCN(CC(=O)O)CCN(CC(=O)O)CC2)C(=O)N[C@@H](Cc2ccc(O)cc2)C(=O)N[C@@H]([C@@H](C)O)C(=O)N[C@@H](CCCCNC(=O)CC[C@H](C(=O)O)N2CCN(CC(=O)O)CCN(CC(=O)O)CCN(CC(=O)O)CC2)C(=O)N[C@@H](Cc2ccccc2)C(=O)N2CCC[C@H]2C(=O)N[C@@H](Cc2c[nH]cn2)C(=O)N[C@@H](Cc2c[nH]cn2)C(=O)N[C@@H](Cc2ccc(O)cc2)C(=O)N1)C(=O)N[C@@H](Cc1ccc(O)cc1)C(=O)N[C@@H](Cc1ccc(-c2ccccc2)cc1)C(N)=O [Compound ID No. 4] (X1-K(X1)WHCYTK(X1)FPHHYCVY[Bip]-NH2; disulfide 4-13)	4.6 µM	2 µM	9.6 µM	51.2 mM⁻¹ s⁻¹	3057			
O=C([O-])CN(CCN(CC(=O)[O-])CC(=O)O)CCN(CC(=O)[O-])CC(=O)O.[Gd+3] [extracellular gadolinium, gadolinium diethylenetriaminepentaacetate, reference compound]						6.3±3.4	5±1.3	
CC(C)C[C@H](NC(=O)[C@@H]1CSSC[C@H](NC(=O)[C@H](Cc2c[nH]cn2)NC(=O)[C@H](Cc2c[nH]c3ccccc23)NC(=O)[C@H](CCCCNC(=O)CC[C@H](C(=O)O)N2CCN(CC(=O)O)CCN(CC(=O)O)CCN(CC(=O)O)CC2)NC(=O)CC[C@H](C(=O)O)N2CCN(CC(=O)O)CCN(CC(=O)O)CCN(CC(=O)O)CC2)C(=O)N[C@@H]([C@@H](C)O)C(=O)N[C@@H]([C@@H](C)O)C(=O)N[C@@H](CCCCNC(=O)CC[C@H](C(=O)O)N2CCN(CC(=O)O)CCN(CC(=O)O)CCN(CC(=O)O)CC2)C(=O)N[C@@H](Cc2ccccc2)C(=O)N2CCC[C@H]2C(=O)N[C@@H](Cc2c[nH]cn2)C(=O)N[C@@H](Cc2c[nH]cn2)C(=O)N[C@@H](Cc2ccc(O)cc2)C(=O)N1)C(=O)N[C@@H](Cc1ccc(O)cc1)C(=O)N[C@@H](Cc1ccc(-c2ccccc2)cc1)C(N)=O [Compound ID No. 2] (X1-K(X1)WHCTTK(X1)FPHHYCLY[Bip]-NH2; disulfide 4-13)	20.6 µM	4.9 µM	4.9 µM	42.9 mM⁻¹ s⁻¹	3184			early uptake
